Results from PubChem BioAssay (NCI).
Several values for one entry are separate records, joined by “and”; a condition that tells them apart may be missing. Equal values may be shown once.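 Where inhibition never reached the appropriate level, the endpoint shown equals the highest concentration tested. Otherwise, values were interpolated linearly from a five-concentration, 48-hour dose response in 96-well plates. GI50: concentration for 50% inhibition of growth. The concentration for full growth arrest is given as TGI.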

Columns and labels:
Assay in all cases: NCI anticancer screen, dose series, 48 h
[1] = tested on: UACC-62 melanoma
[2] = tested on: HCT-15 colon
[3] = tested on: CAKI-1 renal
[4] = tested on: KM12 colon
[5] = tested on: ACHN renal
[6] = tested on: OVCAR-3 ovarian
[7] = tested on: RPMI-8226 leukemia
[8] = tested on: SW-620 colon
[9] = tested on: NCI-H460 lung
[10] = tested on: MALME-3M melanoma

Row | Structure (SMILES) | GI50 [1] | TGI [1] | GI50 [2] | TGI [2] [µM] | GI50 [3] | TGI [3] | GI50 [4] | TGI [4] [µM] | GI50 [5] | TGI [5] | GI50 [6] | TGI [6] | GI50 [7] | TGI [7] [µM] | GI50 [8] | TGI [8] [µM] | GI50 [9] | TGI [9] [µM] | TGI [10] | GI50 [10]
1 | Clc1ccc(N=CNc2ccc(-c3nc4ccccc4[nH]3)cc2)cc1 | 0.386 µM | > 100 µM | 33.1 µM | > 100 | 0.827 µM | 42.5 µM | 0.691 µM | 18.5 | > 100 µM | > 100 µM | 5.35 µM | > 100 µM | 7.57 µM | > 100 | > 100 µM | > 100 | 17.7 µM | > 100 | – | –
2 | CCCCc1c2c(nc3c1CC/C(=C\c1ccccc1)C3=O)CCCC2 | – | 7.04 µM | – | 12.3 | – | – | – | 13.5 | – | 25.9 µM | – | 10.4 µM | – | 7.04 | – | 5.32 | – | 17.7 | 20.2 µM | –
3 | COC(=O)C(NC(=O)c1ccccc1)c1ccc(OC)c(I)c1 (centres undefined) | 52.9 µM | > 100 µM | 35.5 µM | > 100 | 77.6 µM | > 100 µM | > 100 µM | > 100 | 63.8 µM | > 100 µM | 37.4 µM | 88.2 µM | 44.2 µM | > 100 | > 100 µM | > 100 | 67.6 µM | > 100 | – | –
4 | COc1cc2nccc(Oc3ccc(NC(=O)C4(C(=O)Nc5ccc(F)cc5)CC4)cc3)c2cc1OC | 4.74 µM and 1.97 µM | > 10 µM and 32.3 µM | > 10 µM and 3.94 µM | > 100 | 5.87 µM and 3.61 µM | > 10 µM and 40.9 µM | 0.333 µM and 0.0482 µM | > 100 | > 10 µM and 3.88 µM | > 10 µM and 46.3 µM | > 10 µM and 6.03 µM | > 10 µM and 54 µM | > 10 µM and 4.09 µM | > 57.7 | 9.09 µM and 2.38 µM | > 34.5 | > 10 µM and 3.27 µM | > 94.6 | > 10 µM and 9.17 µM | > 10 µM and 2.11 µM
5 | CCOC(=O)c1c(/C=N\Nc2ccccc2)nc2ccccc2c1-c1ccccc1 | – | 76.9 µM | – | > 100 | – | > 100 µM | – | > 100 | – | > 100 µM | – | > 100 µM | – | 83.8 | – | > 100 | – | > 100 | 90.5 µM | –
6 | Cn1c(=O)c(Oc2ccc(F)cc2F)cc2cnc(NC3CCC(O)CC3)nc21 (centres undefined) | > 25 µM | > 25 µM | > 25 µM | > 25 | > 25 µM | > 25 µM | > 25 µM | > 25 | > 25 µM | > 25 µM | > 25 µM | > 25 µM | > 25 µM | > 25 | > 25 µM | > 25 | > 25 µM | > 25 | > 25 µM | > 25 µM
7 | CCOC(=O)NC/C=C/CO | – | > 100 µM | – | > 100 | – | > 100 µM | – | > 100 | – | > 100 µM | – | – | – | > 100 | – | > 100 | – | > 100 | > 100 µM | –
